Experimental findings from ChEMBL document CHEMBL1201862, “PubChem BioAssay data set” (2004) are described below.

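Assay format: 96-well plates, 48-hour exposure. GI50 marks 50% less growth.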 Active and inactive are the calls of the source. Rule as the data show it: active = GI50 up to about 1.1 µM and inactive = higher.

What all share (test): inhibition of tumour cell growth, NCI panel, 48 h
The test system of assay [1] is LOX IMVI.
Assay [2] has as its system SF-539.
Assay [3] has as its system HT-29.
The test system of assay [4] is HCT-15.
For assay [5], the system named is SK-OV-3.
Assay [6] deals with UO-31.
Assay [7] relates to SF-295.
The subject of assay [8] is K562.
Assay [9] has as its system NCI-H460.
Assay [10] has as its system OVCAR-4.
Assay [11] relates to HCT-116.
For assay [12], the system named is 786-0.
The test system of assay [13] is OVCAR-3.
Assay [14] deals with A549.
Assay [15] concerns EKVX.
Assay [16] deals with MDA-N.
Assay [17] deals with PC-3.
The subject of assay [18] is MDA-MB-435.
Assay [19] relates to HOP-92.
For assay [20], the system named is COLO 205.

For the compound `Oc1c(CN2CCOCC2)ccc(CN2CCOCC2)c1O`, the GI50 in assay [1] was 39 µM (inactive); in assay [2] it was 25.7 µM (inactive); in [3], 52.1 µM (inactive); in assay [4], 34 µM; in [5] it was 54 µM (inactive); in assay [6], 18 µM (inactive). The GI50 in [7] was 26 µM (inactive); in assay [8], 34.3 µM (inactive); in [9], 25.7 µM (inactive); in assay [10], > 100 µM (inactive); in assay [11] it was 38 µM (inactive); in [12], 37.5 µM (inactive). The GI50 in assay [13] was 21.2 µM (inactive); in assay [14], 39.4 µM (inactive); in assay [15], 50.8 µM (inactive); in assay [16], 50.2 µM (inactive); in assay [17] it was 48 µM (inactive); in [18], 81.7 µM (inactive). Besides, the figures for the GI50 in [19] and in assay [20] were > 100 µM (inactive) and 45.9 µM (inactive), respectively.
For `COc1cc(C2C3=C(COC3=O)Oc3cc4c(cc32)OCO4)ccc1O` (stereo not given), the GI50 in assay [1] was 0.601 µM (active); in [2] it was 0.281 µM (active); in assay [3], 0.359 µM (active); in [4], 0.476 µM; in [5], 0.302 µM (active); in [6], 0.327 µM (active). Besides, the GI50 in assay [7] was 0.127 µM (active); in [8] it was 0.148 µM (active); in assay [9] it was 0.308 µM (active); in assay [10] it was 0.321 µM (active); in assay [11], 0.448 µM (active); in [12], 0.481 µM (active). For the same compound, the GI50 is 0.189 µM (active) in [13]; 0.41 µM (active) in assay [14]; 1.05 µM (active) in assay [15]; 0.11 µM (active) in [16]; 0.167 µM (active) in assay [17]; 0.0552 µM (active) in assay [18]. Further, the GI50 in assay [19] is 3.59 µM (inactive); in assay [20] it was 0.225 µM (active).
As for `O=C1NC(=O)C2=C1CCC2O` (stereo not given), the GI50 in assay [1] is > 100 µM (inactive); in assay [2], > 100 µM (inactive); in assay [3] it was > 100 µM (inactive); in [4], greater than 100 µM; in assay [5], > 100 µM (inactive); in assay [6] it was > 100 µM (inactive). In addition, the GI50 in assay [7], in assay [8], in [9], in [10], in assay [11] and in [12] was > 100 µM (inactive) each time. Moreover, the GI50 in [13], in assay [14], in assay [15], in assay [16], in assay [17] and in assay [18] was > 100 µM (inactive) throughout. Also, the GI50 in assay [19] and in [20] was > 100 µM (inactive) throughout.
For the compound `NC(=S)Nc1nc(=S)[nH]c2c1SC1=N/C(=C\c3ccco3)C(=O)N12`, the GI50 in [1] was 40.6 µM (inactive); in [2] it was > 77.6 µM (inactive); in assay [3] it was > 60.4 µM (inactive); in assay [4], 48.8 µM; in assay [5] it was > 100 µM (inactive); in assay [6] it was > 100 µM (inactive). Besides, the GI50 is > 100 µM (inactive) in assay [7]; 28.4 µM (inactive) in [8]; 68.7 µM (inactive) in [9]; 61.8 µM (inactive) in assay [10]; > 96.2 µM (inactive) in assay [11]; > 100 µM (inactive) in [12]. The GI50 was > 89.7 µM (inactive) in assay [13]; > 100 µM (inactive) in assay [14]; 59 µM (inactive) in assay [15]; > 100 µM (inactive) in assay [16]; > 100 µM (inactive) in [17]; > 100 µM (inactive) in [18]. Further, the GI50 in assay [19] and in assay [20] was > 100 µM (inactive) each time.
For `O=C1/C(=C/c2n[nH]cc2-c2ccc(Cl)cc2)C(=O)N(c2ccccc2)C1c1ccccc1` (stereo not given), the GI50 is 14.3 µM (inactive) in [1]; 22.3 µM (inactive) in [2]; 12.3 µM (inactive) in assay [3]; 15 µM in assay [4]; 15.5 µM (inactive) in assay [5]; 18.9 µM (inactive) in assay [6]. Moreover, the GI50 was 18.4 µM (inactive) in assay [7]; 8.41 µM (inactive) in [8]; 26.4 µM (inactive) in assay [9]; 25.6 µM (inactive) in [10]; 12.5 µM (inactive) in [11]; 17.2 µM (inactive) in assay [12]. In addition, the GI50 in assay [13] was 6.28 µM (inactive); in assay [14], 25 µM (inactive); in [15], 20.7 µM (inactive); in assay [16], 14 µM (inactive); in assay [17] it was 6.92 µM (inactive); in assay [18], 14.9 µM (inactive). The GI50 in assay [19] was 23.4 µM (inactive); in assay [20], 14.2 µM (inactive).
Take `CCCCCCCCCCCCOCCCCCCCCC/C=C/c1ccc2c(c1)OCCOCCOCCOCCO2`: the GI50 in [1] was 19.3 µM (inactive); in assay [2], 17.4 µM (inactive); in [3] it was 20.7 µM (inactive); in assay [4], 45.9 µM; in assay [5] it was 17.5 µM (inactive); in [6], 19.1 µM (inactive). Further, the GI50 in [7] is 16.3 µM (inactive); in assay [8], 31.3 µM (inactive); in assay [9], 18.4 µM (inactive); in assay [10], 19.3 µM (inactive); in assay [11], 16 µM (inactive); in assay [12], 13.6 µM (inactive). Also, the GI50 in assay [13] is 21.1 µM (inactive); in assay [14] it was 17.6 µM (inactive); in assay [15], 26.6 µM (inactive); in assay [16], 18.5 µM (inactive); in assay [17], 17.9 µM (inactive); in assay [18], 18.3 µM (inactive). The GI50 in assay [19] was 12.2 µM (inactive); in assay [20], 18.9 µM (inactive).
For the compound `CC(=O)N1C(CCc2ccccc2)CC(C)(C=O)C1Cc1ccc(O[Si](C(C)C)(C(C)C)C(C)C)cc1` (stereo not given), the GI50 in [1] is 1.94 µM (inactive); in assay [2], 2.43 µM (inactive); in assay [3] it was 2.86 µM (inactive); in assay [4], 3.03 µM; in [5] it was 13.4 µM (inactive); in assay [6], 3.21 µM (inactive). Besides, the GI50 in [7] was 5.11 µM (inactive); in assay [8], 2.72 µM (inactive); in assay [9] it was 2.96 µM (inactive); in [10], 3.7 µM (inactive); in assay [11], 2.55 µM (inactive); in [12] it was 2.38 µM (inactive). In addition, the GI50 is 4.8 µM (inactive) in [13]; 3.87 µM (inactive) in [14]; 4.75 µM (inactive) in assay [15]; 2.39 µM (inactive) in assay [16]; 3.18 µM (inactive) in assay [17]; 2.63 µM (inactive) in assay [18]. Also, the GI50 in assay [19] was 9.71 µM (inactive); in assay [20], 2.93 µM (inactive).
For `Cc1ccc(/N=N/c2ccc(O)c(CN(C)C)c2)cc1C`, the GI50 is 10.5 µM (inactive) in assay [1]; 19.5 µM (inactive) in assay [2]; 18.4 µM (inactive) in [3]; 17.3 µM in assay [4]; 45 µM (inactive) in [5]; 8.3 µM (inactive) in assay [6]. For the same compound, the GI50 in assay [7] was 40.7 µM (inactive); in assay [8], 13.9 µM (inactive); in assay [9], 19.1 µM (inactive); in assay [10] it was 43.4 µM (inactive); in assay [11] it was 36.3 µM (inactive); in assay [12], 34.4 µM (inactive). The GI50 is 15.6 µM (inactive) in assay [13]; 34.7 µM (inactive) in assay [14]; 20.6 µM (inactive) in assay [15]; 38.9 µM (inactive) in assay [16]; 40.9 µM (inactive) in assay [17]; 18.7 µM (inactive) in assay [18]. For the same compound, the GI50 was 26.8 µM (inactive) in assay [19] and 11.9 µM (inactive) in assay [20].
On to `CCN1C[C@]2(C)CC[C@H](OC)C34C5C[C@@H]6[C@@H](OC)C[C@@](OC)(C5[C@H]6OCc5ccccc5)C(C13)[C@H](OC(C)=O)[C@@H]42` (stereo not given in full), for which the GI50 in [1] was > 100 µM (inactive); in assay [2], > 100 µM (inactive); in [3] it was > 100 µM (inactive); in assay [4] it was greater than 100 µM; in [5], > 100 µM (inactive); in [6], > 100 µM (inactive). Further, the GI50 in [7] is > 100 µM (inactive); in [8] it was > 100 µM (inactive); in assay [9], 59.8 µM (inactive); in [10], > 100 µM (inactive); in assay [11] it was > 100 µM (inactive); in assay [12] it was > 100 µM (inactive). For the same compound, the GI50 in assay [13] was 64.3 µM (inactive); in assay [14], > 100 µM (inactive); in assay [15], > 100 µM (inactive); in assay [16], > 100 µM (inactive); in [17], 82.8 µM (inactive); in assay [18] it was > 100 µM (inactive). The GI50 in assay [19] is 38.6 µM (inactive); in [20] it was 75.2 µM (inactive).
In the case of `Clc1ccc(C(c2ccc(Cl)cc2)N2CCNCC2)cc1`, the GI50 in assay [1] is 1.92 µM (inactive); in [2], 1.87 µM (inactive); in [3] it was 2.03 µM (inactive); in assay [4], 2.58 µM; in assay [5], 5.43 µM (inactive); in assay [6] it was 2.02 µM (inactive). In addition, the GI50 in [7] was 2.28 µM (inactive); in assay [8], 1.58 µM (inactive); in assay [9], 2.05 µM (inactive); in assay [10], 2.48 µM (inactive); in assay [11], 1.73 µM (inactive); in assay [12] it was 1.77 µM (inactive). Also, the GI50 in [13] is 1.9 µM (inactive); in [14], 2.74 µM (inactive); in [15], 3.02 µM (inactive); in assay [16], 1.89 µM (inactive); in assay [17], 2.45 µM (inactive); in [18], 1.93 µM (inactive). Moreover, the GI50 in assay [19] is 3.01 µM (inactive); in assay [20] it was 1.96 µM (inactive).
